How the values were obtained:
[1] = administered 3 hours prior to cocaine; cited from earlier work
CA1 pyramidal neurons = assay: IPSC recordings in CA1 pyramidal cells of hippocampal slices; format: cell-based, mouse; settings: 0.25 mM in recording ACSF; for spontaneous IPSCs (sIPSCs, mIPSCs): Evf2TS/TS and wild-type mice; for evoked IPSCs: wild-type and Evf2TS/TS mice
Experimental: Transverse hippocampal slices ([…]) were prepared from 3-5-month-old Evf2^TS/TS mice. Slices were cut in ice-cold (˜4° C.) oxygenated ACSF and then were allowed to recover for 1-2 h before being transferred to the recording chamber where they were continuously superfused with solution heated to 32-34° C. and saturated with 95% O2/5% CO2. The standard extracellular solution contained 124 mM NaCl, 3 mM KCl, 1.25 mM KH2PO4, 2.0 mM CaCl2, 1.3 mM MgCl2, 26 mM NaHCO3 and 10 mM glucose. The concentration of MgCl2 was raised to 2.0 mM and that of CaCl2 decreased to 1.4 mM in the slicing solution. […].
Somatic whole-cell recordings were obtained from CA1 pyramidal neurons under visual guidance using infrared differential interference contrast microscopy. Patch pipettes were pulled from borosilicate glass capillary tubing (A-M Systems). Internal solution for the patch pipettes contained 120 mM cesium methane sulphonate, 10 mM CsCl, 5 mM NaCl, 10 mM HEPES, 10 mM EGTA, 5 mM TEA-Cl, 4 mM Mg-ATP, 0.3 mM GTP and 5 mM QX-314 (pH 7.3-7.4), adjusted with CsOH, osmolarity 290±10 mOsm.
Voltage-clamp recordings were performed using Axopatch-200B (Axon Instruments). In all of our recordings, series resistance was <22 MΩ and was compensated at 80%. The recorded signal was low-pass filtered at 5 kHz and digitized at 10 kHz with a PCI-MIO-16E-4 board (National Instruments). All data were stored on a PC computer with custom software using C++ Builder 5.0 (Borland) and a NI DAQ 6.5 driver (National Instruments).
Evoked IPSCs were elicited at 0.1-0.07 Hz with a bipolar Pt/Ir electrode (2×25 μn) positioned on the stratum radiatum within 150 μm of the cell being recorded (Schaffer collateral-commisural fibers location site). At the beginning of each experiment, stimulus intensity was adjusted to evoke […] with amplitude of 0.4-0.2 nA. Evoked IPSCs were recorded at holding potential from −70 mV to +20 mV with 10-mV voltage steps after blocking EPSCs with a solution containing CNQX and D-AP5.
Spontaneous IPSCs were analyzed using MiniAnalysis 6.0.3 software (Synaptosoft). All events were manually selected on the basis of their kinetics. Between 250 and 450 individual events were analyzed for each cell. Post-recording analyses of evoked IPSPs were carried out using Clampfit 10 (Axon Instruments). All statistical values were evaluated with Origin 8 (MicroCal Software). Values are presented as mean±s.e.m. Statistical differences were established at P<0.05 using the Student t test, unless otherwise indicated.

| Molecule | locomotor response to cocaine [1] | spontaneous IPSCs (sIPSCs, mIPSCs) (CA1 pyramidal neurons) | spontaneous IPSCs (sIPSCs, mIPSCs) (CA1 pyramidal neurons; listed as picrotoxin) | evoked IPSCs (CA1 pyramidal neurons) | evoked IPSCs (CA1 pyramidal neurons; listed as picrotoxin) |
| --- | --- | --- | --- | --- | --- |
| C=CC(N)CCC(=O)O (centres unmarked) [GVG] | can attenuate locomotor response | – | – | – | – |
| Picrotoxin | – | blocked all IPSC activity | abolished | blocked evoked IPSCs | abolished |

Source: patent US9491935B2, “Animal models of neurological disorders” (Ann & Robert H. Lurie Children's Hospital of Chicago, priority 2009, dated 2016)
